Source: ChEMBL document CHEMBL3046391, “Acute toxicity and sublethal effects of methoxyfenozide and thiodicarb on survival, development and reproduction of Helicoverpa armigera (Lepidoptera: Noctuidae)” (2013)
In brackets after ≈: the same amount, converted by molar mass.

Columns and labels:
Assay type in all cases: functional
[1] = tested on: Helicoverpa armigera; assay: Insecticidal activity against Helicoverpa armigera adults emerged from compound-treated third-instar larval stage assessed as decrease in longevity rate at LC30 concentration; set-up: scale not given: the % may be the effect or the level left
[2] = tested on: Helicoverpa armigera; assay: Insecticidal activity against Helicoverpa armigera adults emerged from compound-treated third-instar larval stage assessed as decrease in fecundity rate at LC30 concentration; set-up: scale not given: the % may be the effect or the level left
[3] = tested on: Helicoverpa armigera; assay: Insecticidal activity against Helicoverpa armigera pupae assessed as increase in pupal development time at LC30 concentration treated during third-instar larval stage for 24 hr
[4] = tested on: Helicoverpa armigera; assay: Insecticidal activity against Helicoverpa armigera assessed as pupal weight at LC30 concentration treated during third-instar larval stage for 24 hr (reference value: 311 +/-9 mg)
[5] = tested on: Helicoverpa armigera; assay: Insecticidal activity against third-instar larval stage of Helicoverpa armigera fed with artificial diet containing compound assessed as increase in larval development time at LC30 concentration incubated for 24 hr
[6] = tested on: Helicoverpa armigera; assay: Insecticidal activity against Helicoverpa armigera fed with artificial diet containing compound assessed as mortality at LC30 concentration measured at 24 hr intervals beginning at 24 hr after initial drug exposure
[7] = tested on: Helicoverpa armigera; assay: Insecticidal activity against third-instar larval stage of Helicoverpa armigera fed with artificial diet containing compound assessed as mortality at LC30 concentration measured at 24 hr intervals beginning at 24 hr after initial drug exposure
[8] = tested on: Helicoverpa armigera; assay: Insecticidal activity against third-instar larval stage of Helicoverpa armigera fed with artificial diet containing compound assessed as mortality measured at 24 hr intervals beginning at 24 hr after initial drug exposure; conditions: for LC50: Helicoverpa armigera, Instar larval stage, 24 h

COc1cccc(C(=O)NN(C(=O)c2cc(C)cc(C)c2)C(C)(C)C)c1C [METHOXYFENOZIDE] showed an Activity [1] of 27.5%, an Activity [2] of 35% and a Time [3] of 2.3 days. For the same compound, the Activity [4] was 253 mg, the Time [5] was 2.1 days and the mortality [6] was 32%. The mortality [7] was 32%, the LC30 [8] was 148 ppm and the LC90 [8] was 560 ppm. The LC50 [8] was 218 µg/mL (≈ 592 µM).
CS/C(C)=N\OC(=O)N(C)SN(C)C(=O)O/N=C(\C)SC [THIODICARB] showed an Activity [1] of 23%, an Activity [2] of 30% and a Time [3] of 0.5 days. It also gave an Activity [4] of 294 mg, a Time [5] of 5.3 days and a mortality [6] of 20%. For the same compound, the mortality [7] was 20%, the LC30 [8] was 550 ppm and the LC90 [8] was 1987 ppm. The LC50 [8] was 798 µg/mL (≈ 2250 µM).
